Laboratory results reported in patent publication US7138361B2, “Herbicidal heterocycles” (E. I. du Pont de Nemours and Company, priority 2000, dated 2006).

How the values were obtained:
Format in all cases: in vivo
Sunflower [1] = assay: Test C preemergence; details: Rate 62 g/ha, scale 0 to 100
Sunflower [2] = assay: Test C preemergence; details: Rate 500 g/ha, visual evaluation after 12 to 14 days
corn (Zea mays) [3] = assay: Test B postemergence
Procedure, shortened: (§1)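 Preemergence: seeds planted and treated with test chemicals in non-phytotoxic solvent with surfactant; postemergence on plants 2–18 cm (1- to 4-leaf stage). Kept in greenhouse 13–15 days, then visually rated against controls on a 0 (no effect) to 100 (complete control) scale.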

[4] = system: velvetleaf (Abutilon theophrasti); assay: Test B postemergence
Procedure, shortened: as §1

[5] = system: pigweed (Amaranthus retroflexus); assay: Test B postemergence
Procedure, shortened: as §1

[6] = system: lambsquarters (Chenopodium album); assay: Test B postemergence
Procedure, shortened: as §1

wild oat (Avena fatua) = assay: Test B postemergence
Procedure, shortened: as §1

[7] = system: giant foxtail (Setaria faberii); assay: Test B postemergence
Procedure, shortened: as §1

[8] = system: barnyardgrass (Echinochloa crus-galli); assay: Test B postemergence
Procedure, shortened: as §1

[9] = system: Surinam grass (Brachiaria decumbens); assay: Test B postemergence
Procedure, shortened: as §1

[10] = system: blackgrass (Alopecurus myosuroides); assay: Test B postemergence
Procedure, shortened: as §1

[11] = system: cocklebur (Xanthium strumarium); assay: Test B postemergence
Procedure, shortened: as §1

[12] = system: wheat (Triticum aestivum); assay: Test B postemergence
Procedure, shortened: as §1

[13] = system: morning glory (Ipomoea hederacea); assay: Test B postemergence
Procedure, shortened: as §1

[14] = system: crabgrass (Digitaria sanguinalis); assay: Test B postemergence
Procedure, shortened: as §1

[15] = system: barnyardgrass (Echinochloa crus-galli); assay: Test C flooded paddy test; details: for Barnyardgrass plant response rating: Flooded Paddy, scale 0 to 100, 0 no effect, 100 complete control; for Plant response rating, Barnyardgrass / Plant response rating (scale 0 to 100), Barnyardgrass: flooded paddy test; for Plant response rating, Barnyardgrass: scale 0 to 100 (0 no effect, 100 complete control)
Procedure, shortened: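 Rice and three paddy weeds were grown to the 2-leaf stage under flooded conditions, then treated and kept in a greenhouse for 12–14 days. Response was rated visually against untreated controls on a 0–100 scale, where 100 is complete control.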

corn (Zea mays) [16] = assay: Test B preemergence
Procedure, shortened: as §1

[17] = system: velvetleaf (Abutilon theophrasti); assay: Test B preemergence
Procedure, shortened: as §1

[18] = system: pigweed (Amaranthus retroflexus); assay: Test B preemergence
Procedure, shortened: as §1

rice (Oryza saliva) = assay: Test B preemergence
Procedure, shortened: as §1

[19] = system: lambsquarters (Chenopodium album); assay: Test B preemergence
Procedure, shortened: as §1

[20] = system: giant foxtail (Setaria faberii); assay: Test B preemergence
Procedure, shortened: as §1

[21] = system: barnyardgrass (Echinochloa crus-galli); assay: Test B preemergence
Procedure, shortened: as §1

[22] = system: Surinam grass (Brachiaria decumbens); assay: Test B preemergence
Procedure, shortened: as §1

[23] = system: cocklebur (Xanthium strumarium); assay: Test B preemergence
Procedure, shortened: as §1

[24] = system: morning glory (Ipomoea hederacea); assay: Test B preemergence
Procedure, shortened: as §1

[25] = system: crabgrass (Digitaria sanguinalis); assay: Test B preemergence
Procedure, shortened: as §1

[26] = Rate 125 g/ha, scale 0 to 100, 0 no effect, 100 complete control
[27] = Rate 500 g/ha, scale 0 to 100, 0 is no effect, 100 is complete control, 13 to 15 days
[28] = Rate 62 g/ha, visually evaluated after 12 to 14 days, 0 = no effect, 100 = complete control
[29] = Preemergence, Rate 500 g/ha, scale 0 to 100, 0 no effect, 100 complete control
[30] = preemergence, Rate 125 g/ha, scale of 0 to 100 where 0 is no effect and 100 is complete control, 13 to 15 days
[31] = Rate 500 g/ha, scale 0 (no effect) to 100 (complete control), 13 to 15 days

CCC(CC)c1ccn(C2OCN(c3cccc(OC(F)F)c3)C2=O)n1 (stereo not shown) [Compound 131]
Plant response rating, Sunflower (Sunflower [1]): 20
Plant response rating (0 to 100), Sunflower (Sunflower [2]): 20
Plant response rating, Corn (corn (Zea mays) [3]; [26]): 0
Plant response rating, Corn (corn (Zea mays) [3]; [27]): 20
Plant response rating, Velvetleaf [4, 26]: 0
Plant response rating, Pigweed [5, 26]: 80
Plant response rating, Lambsquarters [6, 26]: 90
Plant response rating, Wild Oat (wild oat (Avena fatua); [26]): 20
Plant response rating, Foxtail, Giant [7, 26]: 20
Plant response rating, Barnyardgrass [8, 26]: 80
Plant response rating, Barnyardgrass [8, 27]: 100
Plant response rating, Surinam grass [9, 26]: 0
Plant response rating, Surinam grass [9, 27]: 30
Plant response rating, Blackgrass [10, 26]: 0
Plant response rating, Blackgrass [10, 27]: 0
Plant response rating, Cocklebur [11, 26]: 30
Plant response rating, Cocklebur [11, 27]: 70
Plant response rating, Wheat [12, 26]: 0
Plant response rating, Morningglory [13, 26]: 20
Plant response rating, Crabgrass [14, 26]: 0
Barnyardgrass plant response rating ([15]; Rate 250 g/ha): 100
Barnyardgrass plant response rating ([15]; Rate 500 g/ha): 100
Plant response rating, Barnyardgrass ([15]; Rate 125 g/ha): 100
Plant response rating (scale 0 to 100), Barnyardgrass ([15]; Rate 16 g/ha, visually evaluated after 12 to 14 days, 0 = no effect, 100 = complete control): 60
Plant response rating (scale 0 to 100), Barnyardgrass [15, 28]: 100
Plant response rating (scale 0 to 100), Barnyardgrass ([15]; under head Rate 16 g/ha, (own rate not given), after 12 to 14 days): 50
Plant response rating, Corn (corn (Zea mays) [16]; [29]): 50
Plant response rating, Corn (corn (Zea mays) [16]; [30]): 40
Plant response rating, Velvetleaf [17, 29]: 40
Plant response rating, Velvetleaf [17, 30]: 0
Plant response rating, Pigweed [18, 29]: 100
Plant response rating, Pigweed [18, 30]: 100
Plant response rating, Rice (rice (Oryza saliva); [29]): 100
Plant response rating, Rice (rice (Oryza saliva); [30]): 70
Plant response rating, Lambsquarters [19, 29]: 100
Plant response rating, Lambsquarters [19, 30]: 100
Plant response rating, Foxtail, Giant [20, 29]: 100
Plant response rating, Foxtail, Giant [20, 30]: 100
Plant response rating, Barnyardgrass [21, 29]: 100
Plant response rating, Barnyardgrass [21, 30]: 100
Plant response rating, Surinam grass [22, 29]: 100
Plant response rating, Surinam grass [22, 30]: 100
Plant response rating, Cocklebur [23, 29]: 30
Plant response rating, Cocklebur [23, 30]: 0
Plant response rating, Morningglory [24, 29]: 90
Plant response rating, Morningglory [24, 30]: 0
Plant response rating, Crabgrass [25, 29]: 100
Plant response rating, Crabgrass [25, 30]: 100

CCC(CC)c1ccn(C2CCN(c3ccc(F)c(C(F)(F)F)c3)C2=O)n1 (stereo not shown) [Compound 144]
Plant response rating, Sunflower (Sunflower [1]): 40
Plant response rating (0 to 100), Sunflower (Sunflower [2]): 70
Plant response rating, Corn (corn (Zea mays) [3]; [26]): 0
Plant response rating, Corn (corn (Zea mays) [3]; [31]): 0
Plant response rating, Velvetleaf [4, 26]: 0
Plant response rating, Velvetleaf [4, 31]: 0
Plant response rating, Pigweed [5, 26]: 50
Plant response rating, Pigweed [5, 31]: 100
Plant response rating, Lambsquarters [6, 26]: 100
Plant response rating, Lambsquarters [6, 31]: 100
Plant response rating, Wild Oat (wild oat (Avena fatua); [26]): 0
Plant response rating, Wild Oat (wild oat (Avena fatua); [31]): 0
Plant response rating, Foxtail, Giant [7, 26]: 20
Plant response rating, Foxtail, Giant [7, 31]: 40
Plant response rating, Barnyardgrass [8, 26]: 0
Plant response rating, Barnyardgrass [8, 31]: 0
Plant response rating, Surinam grass [9, 26]: 0
Plant response rating, Surinam grass [9, 31]: 0
Plant response rating, Blackgrass [10, 26]: 0
Plant response rating, Blackgrass [10, 31]: 0
Plant response rating, Cocklebur [11, 26]: 0
Plant response rating, Cocklebur [11, 31]: 30
Plant response rating, Wheat [12, 26]: 0
Plant response rating, Wheat [12, 31]: 0
Plant response rating, Morningglory [13, 26]: 0
Plant response rating, Morningglory [13, 31]: 30
Plant response rating, Crabgrass [14, 26]: 0
Plant response rating, Crabgrass [14, 31]: 40
Barnyardgrass plant response rating ([15]; Rate 500 g/ha): 100
Plant response rating, Barnyardgrass ([15]; Rate 125 g/ha): 100
Plant response rating, Barnyardgrass ([15]; Rate 250 g/ha): 100
Plant response rating (scale 0 to 100), Barnyardgrass [15, 28]: 100
Plant response rating, Corn (corn (Zea mays) [16]; [29]): 20
Plant response rating, Corn (corn (Zea mays) [16]; [30]): 0
Plant response rating, Velvetleaf [17, 29]: 0
Plant response rating, Velvetleaf [17, 30]: 0
Plant response rating, Pigweed [18, 29]: 100
Plant response rating, Pigweed [18, 30]: 100
Plant response rating, Rice (rice (Oryza saliva); [29]): 0
Plant response rating, Rice (rice (Oryza saliva); [30]): 0
Plant response rating, Lambsquarters [19, 29]: 100
Plant response rating, Lambsquarters [19, 30]: 100
Plant response rating, Foxtail, Giant [20, 29]: 100
Plant response rating, Foxtail, Giant [20, 30]: 100
Plant response rating, Barnyardgrass [21, 29]: 100
Plant response rating, Barnyardgrass [21, 30]: 80
Plant response rating, Surinam grass [22, 29]: 70
Plant response rating, Surinam grass [22, 30]: 0
Plant response rating, Cocklebur [23, 29]: 0
Plant response rating, Cocklebur [23, 30]: 0
Plant response rating, Morningglory [24, 29]: 0
Plant response rating, Morningglory [24, 30]: 0
Plant response rating, Crabgrass [25, 29]: 100
Plant response rating, Crabgrass [25, 30]: 100

CCC(CC)c1ccn(C2CCN(c3ccc(Cl)c(OC)c3)C2=O)n1 (stereo not shown) [Compound 118]
Plant response rating, Sunflower (Sunflower [1]): 0
Plant response rating (0 to 100), Sunflower (Sunflower [2]): 70
Plant response rating, Corn (corn (Zea mays) [3]; [26]): 20
Plant response rating, Corn (corn (Zea mays) [3]; [27]): 20
Plant response rating, Velvetleaf [4, 26]: 40
Plant response rating, Pigweed [5, 26]: 70
Plant response rating, Lambsquarters [6, 26]: 90
Plant response rating, Wild Oat (wild oat (Avena fatua); [26]): 30
Plant response rating, Foxtail, Giant [7, 26]: 0
Plant response rating, Barnyardgrass [8, 26]: 0
Plant response rating, Barnyardgrass [8, 27]: 90
Plant response rating, Surinam grass [9, 26]: 30
Plant response rating, Surinam grass [9, 27]: 40
Plant response rating, Blackgrass [10, 26]: 0
Plant response rating, Blackgrass [10, 27]: 0
Plant response rating, Cocklebur [11, 26]: 60
Plant response rating, Cocklebur [11, 27]: 100
Plant response rating, Wheat [12, 26]: 20
Plant response rating, Morningglory [13, 26]: 40
Plant response rating, Crabgrass [14, 26]: 40
Barnyardgrass plant response rating ([15]; Rate 250 g/ha): 100
Barnyardgrass plant response rating ([15]; Rate 500 g/ha): 100
Plant response rating, Barnyardgrass ([15]; Rate 62 g/ha): 50
Plant response rating, Barnyardgrass ([15]; Rate 125 g/ha): 60
Plant response rating, Corn (corn (Zea mays) [16]; [29]): 30
Plant response rating, Corn (corn (Zea mays) [16]; [30]): 30
Plant response rating, Velvetleaf [17, 29]: 90
Plant response rating, Velvetleaf [17, 30]: 20
Plant response rating, Pigweed [18, 29]: 100
Plant response rating, Pigweed [18, 30]: 100
Plant response rating, Rice (rice (Oryza saliva); [29]): 0
Plant response rating, Rice (rice (Oryza saliva); [30]): 0
Plant response rating, Lambsquarters [19, 29]: 100
Plant response rating, Lambsquarters [19, 30]: 100
Plant response rating, Foxtail, Giant [20, 29]: 100
Plant response rating, Foxtail, Giant [20, 30]: 40
Plant response rating, Barnyardgrass [21, 29]: 100
Plant response rating, Barnyardgrass [21, 30]: 100
Plant response rating, Surinam grass [22, 29]: 90
Plant response rating, Surinam grass [22, 30]: 0
Plant response rating, Cocklebur [23, 29]: 0
Plant response rating, Cocklebur [23, 30]: 0
Plant response rating, Morningglory [24, 29]: 100
Plant response rating, Morningglory [24, 30]: 40
Plant response rating, Crabgrass [25, 29]: 100
Plant response rating, Crabgrass [25, 30]: 100
